Reference: paper PMC4770093, “The role of kinetic context in apparent biased agonism at GPCRs” (Nature Communications, 2016)
Where “and” joins values, the source holds several entries; their conditions need not be identical. Equal entries are not always repeated.

Experiments:
D2LR [1] = target: T1, D2LR (Homo sapiens, UniProt P14416); assay: ERK1/2 phosphorylation assay (Alphascreen SureFire); type: cell-based; set-up: expressed in transfected cells; settings: agonist 10 μM (cariprazine 1 μM), single experiments n=1 to n=4
Experimental: ERK1/2 phosphorylation was measured using the Alphascreen SureFire ERK kit (PerkinElmer, Waltham, USA). Cells were seeded into 96-well plates at a density of 50,000 cells per well. After 5–7 h, cells were washed with PBS and incubated in serum-free DMEM overnight before assaying. Dose–response experiments were performed for each ligand at 37 °C in the presence of 0.1% ascorbic acid. […] The plate was shaken for 5 min at room temperature (RT) before transferring 5 μl of the lysates to a white 384-well Proxiplate (PerkinElmer, Waltham, USA). […] Plates were read using a Fusion-TM plate reader (PerkinElmer, Waltham, USA).

D2LR [2] = target: T1, D2LR; assay: GαoB G protein activation (BRET); type: cell-based; set-up: expressed in transfected cells; settings: for Emax Gao: relative to the maximal response of ropinirole;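 on all read-outs here: Flp-In-CHO cells stably expressing D2LR, transiently transfected, agonist-stimulated in HBSS at 37 °C, net BRET read after coelenterazine, vehicle control subtracted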
D2LR [3] = target: T1, D2LR; assay: xCELLigence cellular impedance (CI) assay; type: cell-based; set-up: expressed in transfected cells; settings: for Emax CI: relative to the maximal response of ropinirole
Experimental: Changes in CI on ligand stimulation were measured using the xCELLigence system (Roche Applied Science). The baseline cell index of each well of a 96-well E-plate was measured in the presence of growth medium before cell seeding. Cells were seeded at a density of 20,000 cells per well and grown for 16–20 h followed by 4 h serum starvation. Cells were treated with the ligands and the cell index values were obtained immediately after ligand stimulation every 15 s for a total time of 90 min. The retrieved cell index values were then normalized by dividing the cell index at the time of ligand addition followed by subtraction of the vehicle control at each time point.

D2LR [4] = target: T1, D2LR; assay: Inhibition of forskolin-induced cAMP production (BRET CAMYEL biosensor); settings: for Emax cAMP: relative to the maximal response of ropinirole; for Inhibition of cAMP production measured using a CAMYEL BRET biosensor, Net BRET: single experiments n = 1, 2, 3
Experimental: Flp-In-CHO cells stably expressing the D2LR were seeded at a density of 2,000,000 cells per 10-cm dish and were transfected the following day using polyethylenimine as the transfection reagent. The cells were transfected with 3 μg CAMYEL, to allow the detection of cAMP levels within the cells. Twenty-four hours after transfection, the cells were plated into 96-well CulturPlates (PerkinElmer) and grown overnight. The cells were equilibrated in Hank's balanced salt solution at 37 °C (or 25 °C when indicated) before starting the experiment. The cells were co-stimulated with the agonists and 10 μM forskolin for the indicated timeframes when the BRET readings were captured. Coelenterazine (Promega) was added at a final concentration of 5 μM at least 3 min before measurement. […] Net BRET was determined by subtraction of the vehicle control co-added with 10 μM forskolin.

[5] = 5 minute timepoint, Flp-In-CHO-D2LR
[6] = 5 minute timepoint, dopamine as reference agonist

T1 sequence (P14416 whole entry, the tested form may be a part): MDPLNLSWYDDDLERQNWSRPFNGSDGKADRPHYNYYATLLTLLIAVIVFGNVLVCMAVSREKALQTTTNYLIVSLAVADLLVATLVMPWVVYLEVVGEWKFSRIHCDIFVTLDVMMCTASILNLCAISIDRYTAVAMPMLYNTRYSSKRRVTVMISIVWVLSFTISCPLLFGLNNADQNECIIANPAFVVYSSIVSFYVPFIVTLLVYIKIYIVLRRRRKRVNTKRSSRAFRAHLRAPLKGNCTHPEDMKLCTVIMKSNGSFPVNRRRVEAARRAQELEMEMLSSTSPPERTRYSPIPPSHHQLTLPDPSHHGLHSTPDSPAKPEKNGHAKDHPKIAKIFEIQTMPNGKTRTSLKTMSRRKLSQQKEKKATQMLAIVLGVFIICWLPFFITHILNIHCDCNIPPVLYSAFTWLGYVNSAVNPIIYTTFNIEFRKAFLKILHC

CCCN1CCC[C@@H](c2cccc(O)c2)C1 [S-3PPP, (S)-(-)-3-(3-hydroxyphenyl)-N-propylpiperidine]
alpahscreen assay to detect pERK1/2, counts (D2LR [1]; time 7.5 mins): 7.838 counts and 8.667 counts and 10.676 counts and 8.644 counts | alpahscreen assay to detect pERK1/2, counts (D2LR [1]; time 10 mins): 7.633 counts and 9.485 counts and 6.489 counts and 6.6386 counts | alpahscreen assay to detect pERK1/2, counts (D2LR [1]; time 15 mins): 3.509 counts and 3.085 counts and 2.82 counts and 2.443 counts | alpahscreen assay to detect pERK1/2, counts (D2LR [1]; time 20 mins): 2.3 counts and 2.162 counts and 3.001 counts and 1.823 counts | alpahscreen assay to detect pERK1/2, counts (D2LR [1]; time 30 mins): 1.331 counts and 1.287 counts and 2.069 counts and 1.34 counts | Emax Gao (D2LR [2]; 2 min): 64 ± 5.6 | Emax Gao (D2LR [2]; 5 min): 68 ± 3.0 | Log(τ/KA) GαoB activation (D2LR [2]; [5]): 6.40 ± 0.11 | ΔLog(τ/KA) GαoB activation (D2LR [2]; [6]): -0.84 ± 0.14 | Emax Gao (D2LR [2]; 10 min): 73 ±3.1 | Emax Gao (D2LR [2]; 15 min): 76 ± 2.2 | Emax Gao (D2LR [2]; 30 min): 74 ± 3.0 | Emax Gao (D2LR [2]; 45 min): 72 ± 2.2 | Emax Gao (D2LR [2]; 60 min): 72 ± 2.3 | Emax Gao (D2LR [2]; 90 min): 77 ± 2.6 | change in potency over time in the GαoB activation assay (D2LR [2]; time points from 2 to 90 min): twofold | Emax CI (D2LR [3]; 2 min): 46 ± 3.7 | Emax CI (D2LR [3]; 5 min): 46 ± 3.0 | Log(τ/KA) Cellular impedance (D2LR [3]; [5]): 7.34 ± 0.10 | ΔLog(τ/KA) Cellular impedance (D2LR [3]; [6]): -1.22 ± 0.11 | Emax CI (D2LR [3]; 10 min): 36 ± 2.5 | Emax CI (D2LR [3]; 15 min): 32 ± 2.6 | Emax CI (D2LR [3]; 30 min): 26 ± 2.5 | Emax CI (D2LR [3]; 45 min): 23 ± 2.5 | Emax CI (D2LR [3]; 60 min): 21 ± 2.5 | Emax CI (D2LR [3]; 75 min): 19 ± 2.4 | Emax CI (D2LR [3]; 90 min): 17 ± 2.3 | Emax cAMP (D2LR [4]; 2 min): 73 ± 1.9 | Emax cAMP (D2LR [4]; 5 min): 73 ± 2.0 | Log(τ/KA) cAMP (D2LR [4]; [5]): 6.65 ± 0.06 | ΔLog(τ/KA) cAMP (D2LR [4]; [6]): -1.40 ± 0.08 | Emax cAMP (D2LR [4]; 10 min): 70 ± 1.7 | Emax cAMP (D2LR [4]; 15 min): 70 ± 1.9 | Emax cAMP (D2LR [4]; 30 min): 71 ± 2.5 | Emax cAMP (D2LR [4]; 45 min): 64 ± 1.4 | Emax cAMP (D2LR [4]; 60 min): 53 ± 2.4 | Emax cAMP (D2LR [4]; 75 min): 66 ± 1.4 | Emax cAMP (D2LR [4]; 90 min): 60 ± 0.8 | Inhibition of cAMP production measured using a CAMYEL BRET biosensor, Net BRET (D2LR [4]; time 2.21667 mins): 0.05465 and 0.08466 and 0.07325 | Inhibition of cAMP production measured using a CAMYEL BRET biosensor, Net BRET (D2LR [4]; time 2.58333 mins): 0.05879 and 0.0813 and 0.07011 | Inhibition of cAMP production measured using a CAMYEL BRET biosensor, Net BRET (D2LR [4]; time 2.95 mins): 0.05876 and 0.09107 and 0.0617 | Inhibition of cAMP production measured using a CAMYEL BRET biosensor, Net BRET (D2LR [4]; time 3.31667 mins): 0.05926 and 0.0872 and 0.07317 | Inhibition of cAMP production measured using a CAMYEL BRET biosensor, Net BRET (D2LR [4]; time 3.68333 mins): 0.06005 and 0.08327 and 0.07534 | Inhibition of cAMP production measured using a CAMYEL BRET biosensor, Net BRET (D2LR [4]; time 4.05 mins): 0.08108 and 0.08891 and 0.07666 | Inhibition of cAMP production measured using a CAMYEL BRET biosensor, Net BRET (D2LR [4]; time 4.41667 mins): 0.07291 and 0.08859 and 0.07671 | Inhibition of cAMP production measured using a CAMYEL BRET biosensor, Net BRET (D2LR [4]; time 4.78333 mins): 0.08207 and 0.09068 and 0.07598 | Inhibition of cAMP production measured using a CAMYEL BRET biosensor, Net BRET (D2LR [4]; time 5.15 mins): 0.088 and 0.08877 and 0.07517 | Inhibition of cAMP production measured using a CAMYEL BRET biosensor, Net BRET (D2LR [4]; time 5.51667 mins): 0.08023 and 0.0868 and 0.07779 | Inhibition of cAMP production measured using a CAMYEL BRET biosensor, Net BRET (D2LR [4]; time 5.88333 mins): 0.08241 and 0.08562 and 0.08229 | Inhibition of cAMP production measured using a CAMYEL BRET biosensor, Net BRET (D2LR [4]; time 6.25 mins): 0.0777 and 0.08078 and 0.07833 | Inhibition of cAMP production measured using a CAMYEL BRET biosensor, Net BRET (D2LR [4]; time 6.61667 mins): 0.07786 and 0.08188 and 0.07763 | Inhibition of cAMP production measured using a CAMYEL BRET biosensor, Net BRET (D2LR [4]; time 6.98333 mins): 0.08463 and 0.08155 and 0.08058 | Inhibition of cAMP production measured using a CAMYEL BRET biosensor, Net BRET (D2LR [4]; time 7.35 mins): 0.08243 and 0.07743 and 0.07354 | Inhibition of cAMP production measured using a CAMYEL BRET biosensor, Net BRET (D2LR [4]; time 7.71667 mins): 0.08152 and 0.0852 and 0.08224 | Inhibition of cAMP production measured using a CAMYEL BRET biosensor, Net BRET (D2LR [4]; time 8.08333 mins): 0.08811 and 0.08583 and 0.07638 | Inhibition of cAMP production measured using a CAMYEL BRET biosensor, Net BRET (D2LR [4]; time 8.45 mins): 0.08386 and 0.08753 and 0.07171 | Inhibition of cAMP production measured using a CAMYEL BRET biosensor, Net BRET (D2LR [4]; time 8.81667 mins): 0.09076 and 0.08128 and 0.08398 | Inhibition of cAMP production measured using a CAMYEL BRET biosensor, Net BRET (D2LR [4]; time 9.18333 mins): 0.08865 and 0.08603 and 0.07348 | Inhibition of cAMP production measured using a CAMYEL BRET biosensor, Net BRET (D2LR [4]; time 9.55 mins): 0.08292 and 0.0837 and 0.08159 | Inhibition of cAMP production measured using a CAMYEL BRET biosensor, Net BRET (D2LR [4]; time 9.91667 mins): 0.09198 and 0.07873 and 0.08223 | Inhibition of cAMP production measured using a CAMYEL BRET biosensor, Net BRET (D2LR [4]; time 10.2833 mins): 0.08942 and 0.08142 and 0.08126 | Inhibition of cAMP production measured using a CAMYEL BRET biosensor, Net BRET (D2LR [4]; time 10.65 mins): 0.09447 and 0.08477 and 0.08651 | Inhibition of cAMP production measured using a CAMYEL BRET biosensor, Net BRET (D2LR [4]; time 11.0167 mins): 0.09406 and 0.0745 and 0.08653 | Inhibition of cAMP production measured using a CAMYEL BRET biosensor, Net BRET (D2LR [4]; time 11.3833 mins): 0.09952 and 0.0798 and 0.08963 | Inhibition of cAMP production measured using a CAMYEL BRET biosensor, Net BRET (D2LR [4]; time 11.75 mins): 0.09797 and 0.09183 and 0.0831 | Inhibition of cAMP production measured using a CAMYEL BRET biosensor, Net BRET (D2LR [4]; time 12.1167 mins): 0.0995 and 0.08775 and 0.0921 | Inhibition of cAMP production measured using a CAMYEL BRET biosensor, Net BRET (D2LR [4]; time 12.4833 mins): 0.08767 and 0.08489 and 0.09746 | Inhibition of cAMP production measured using a CAMYEL BRET biosensor, Net BRET (D2LR [4]; time 12.85 mins): 0.09546 and 0.09264 and 0.08756 | Inhibition of cAMP production measured using a CAMYEL BRET biosensor, Net BRET (D2LR [4]; time 13.2167 mins): 0.09597 and 0.0888 and 0.1009 | Inhibition of cAMP production measured using a CAMYEL BRET biosensor, Net BRET (D2LR [4]; time 13.5833 mins): 0.09698 and 0.09198 and 0.09379 | Inhibition of cAMP production measured using a CAMYEL BRET biosensor, Net BRET (D2LR [4]; time 13.95 mins): 0.09269 and 0.09222 and 0.0998 | Inhibition of cAMP production measured using a CAMYEL BRET biosensor, Net BRET (D2LR [4]; time 14.3167 mins): 0.1016
